# Measured values: PMC6017703, “Synthesis and Biological Evaluation of New Thiosemicarbazone Derivative Schiff Bases as Monoamine Oxidase Inhibitory Agents” (Molecules : A Journal of Synthetic Chemistry and Natural …, 2017)
# Molecular target: T1, monoamine oxidase A (MAO-A) (Homo sapiens, UniProt P21397)
# T1 construct: gene MAOA; recombinant MAO-A
# T1 sequence (P21397 1-527): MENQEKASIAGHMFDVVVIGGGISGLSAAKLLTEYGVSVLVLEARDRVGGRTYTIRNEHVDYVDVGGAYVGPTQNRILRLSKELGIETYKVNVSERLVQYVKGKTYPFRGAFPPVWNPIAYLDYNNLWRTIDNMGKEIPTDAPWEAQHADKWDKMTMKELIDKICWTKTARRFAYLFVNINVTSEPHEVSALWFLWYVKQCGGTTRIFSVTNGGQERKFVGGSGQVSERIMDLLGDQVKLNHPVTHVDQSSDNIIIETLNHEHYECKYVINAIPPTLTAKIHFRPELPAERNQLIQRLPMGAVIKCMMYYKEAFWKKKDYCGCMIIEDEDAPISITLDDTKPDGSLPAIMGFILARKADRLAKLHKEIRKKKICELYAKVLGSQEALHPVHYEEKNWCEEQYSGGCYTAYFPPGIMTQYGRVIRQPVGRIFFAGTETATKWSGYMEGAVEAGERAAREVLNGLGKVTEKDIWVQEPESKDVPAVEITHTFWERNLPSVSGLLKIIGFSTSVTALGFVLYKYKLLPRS
# Assay: fluorometric Ampliflu Red/HRP assay with tyramine; Lineweaver-Burk kinetics (IC50 also […])
# Assay type: biochemical
smiles,measurement,value
"S=C(NN=Cc1ccc(Sc2ccc(Cl)cc2)cc1)NC1CCCCC1 [B24, N-Cyclohexyl-2-[4-[(4-chlorophenyl)thio]benzylidene]hydrazine-1-carbothioamide]",Ki,142 nM
